In brackets after ≈: the same amount, converted by molar mass.
Key:
[1] = test system: Mycobacterium tuberculosis; test: Antimycobacterial activity against multidrug-resistant Mycobacterium tuberculosis 43 assessed as growth inhibition after 45 days by Lowenstein-Jensen method; assay type: functional
[2] = test system: Mycobacterium tuberculosis; test: Antimycobacterial activity against multidrug-resistant Mycobacterium tuberculosis 43 assessed as bacterial growth at 5 uM after 45 days by Lowenstein-Jensen method; assay type: functional

SMILES	MIC [1] [µM]	Activity [2] [%]
CC[C@H](CO)NC(=S)NC(=O)CCc1ccccc1	> 17.8	100
CC[C@H](CO)NC(=S)NC(=O)/C=C/c1ccccc1	> 18	100
CC[C@H](CO)NC(=S)NC(=O)c1ccc(N(C)C)cc1	> 16.9	100
CC[C@H](CO)NC(=S)NC(=O)c1ccccc1O	7.46 (≈ 2 µg/mL)	
